Assay results as given in publication PMC6433934, “Preclinical Evaluation of Bispecific Adaptor Molecule Controlled Folate Receptor CAR-T Cell Therapy With Special Focus on Pediatric Malignancies” (Frontiers in Oncology, 2019).

How the values were obtained:
FRα = target: T1, FRα (Homo sapiens, UniProt P15328); test: 3H-EC17 cell-based radioligand binding, KB cells; settings: ^3H-EC17, KB cells, 2 h at 37°C, from molecules bound per cell
T1 construct: KB (FRα-expressing human cervical carcinoma with HeLa markers); endogenous in cells; host or cells: KB cells (human cervical carcinoma with HeLa markers)
Description: Unless otherwise noted, all FR+ and FR-negative cancer cell lines were, respectively, maintained in RPMI-1640 medium (Gibco BRL) supplemented with 10% heat-inactivated fetal calf serum without (FFRPMI) or with (RPMI) 2.4 μM folic acid (FA). KB (FRα-expressing human cervical carcinoma with HeLa markers) and CHO-β (Chinese hamster ovary cells transfected with human FRβ) were used as the sources of FRα and FRβ for radioligand binding assays, respectively ([18]). MDA-MB-231 represents a FRα+ subclone of human TNBC cell line. For AML studies, the green fluorescent protein (GFP)-expressing isogenic pairs of FRβ-positive (THP1-FRβ) and FR-negative (THP1-FG12) cell lines were kindly provided by Dr. Manohar Ratnam (The University of Toledo, Toledo, OH). […]
The bispecific affinities of EC17 CAM were assessed using ^3H-EC17 in cell-based radioligand binding assays. […] The whole cell lysates were quantitated for the level of radioactivity and cellular protein content by standard Pierce BCA protein assay. The number of ^3H-EC17 molecules bound per cell was calculated to determine the dissociation constants (Kd) for FRα (KB) and FRβ (CHO-β), respectively. […] Afterwards, the cells were washed 4x with PBS, lysed with 0.1% Triton X-100 plus 0.1 N NaOH and counted in a scintillation counter. […]

HOS-143b = test: Kinetics of specific lysis at varying E/T ratios, 10 nM EC17; type: cell-based, human; settings: 10 nM EC17, E2-CAR-T cells, E/T 1:27 to 3:1, 16 and 48 h
Description: For an EC17 dose response study, FR+ cancer cell lines (KB, MDA-MB-231, HOS-FRα, THP1-FRβ, OV90) were co-cultured with EGFRt-sorted E2-CAR-T cells at an effector-to-target (E/T) ratio of 1:1 in the presence of EC17 ranging from 0.1 pM to 100 μM in 10-fold increments. After 24 h of co-culture, supernatants were harvested to determine target cell killing by Promega's CytoTox 96® LDH assay kit and expressed as specific lysis (%) normalized to basal levels in the absence of EC17. To study the kinetics of T cell activation and FR correlation in vitro, co-cultures were carried out in FR+/- cell lines at varying E/T ratios (1:27, 1:9, 1:3, 1:1, 3:1) in the continuous presence of 10 nM EC17. The kinetics of target cell killing (i.e., % specific lysis) were quantified after 16 and 48 h of co-culture and normalized to basal levels in the absence of EC17 at defined E/T ratios. Meanwhile, a portion of the supernatants was taken after 44 h of co-culture for measurement of IFNγ, IL-2, and TNFα. The LEGENDplex™ human Th1 cytokine panel (BioLegend, San Diego, CA) was used to determine CAR-T cell derived cytokines.

[1] = tested on: HOS-FRα tumor-bearing mice; test: Toxicity and CRS rescue with sodium fluorescein; type: in vivo; settings: ~2.5 million CD8 and ~33 million CD4 E2-CAR-T cells
Description: Depending on the CAR-T cell dose and how EC17 is administered, tumor-bearing mice receiving FITC-specific CAR-T cells can experience severe CRS and varying degrees of body weight loss ([27], [33], [34]). Therefore, we developed a CRS grading system (0–5 scale) to empirically assess CRS toxicity from animals' gross morphology and social behavior to allow for better timing of CRS rescue. While grades 0 and 5 indicated normal (no CRS) or death (due to severe CRS), respectively, grades 1, 2, and 3–4 were considered mild, light-to-moderate, and severe CRS. In addition, all EC17 doses were intentionally given toward the end of any given day to allow potential CRS symptoms to develop overnight. On the days immediately following each EC17 dose, animals were scored and rescue agents such as sodium fluorescein, folic acid and leucovorin were used to mitigate CRS toxicity ([33]). In this particular instance, a batch of E2-CAR-T cells with a high EGFRt+ CD4/CD8 ratio (~93:7) was given to HOS-FRα tumor-bearing mice at a mixture of ~2.5 million CD8 and ~33 million CD4 on day 0. When EC17 was dosed, respectively, at 500, 100, and 500 nmol/kg on days 3, 10, and 12, low CRS (grades 1–2) was noted on days 4 and 11 but high CRS (grade 3) was noted on day 13. To mitigate the severe CRS toxicity, sodium fluorescein was intravenously administrated at ~96 mg/kg in the morning of day 13 and mouse plasma samples were collected 6 h later for analysis of CRS-associated cytokines.

T1 sequence (P15328 25-257): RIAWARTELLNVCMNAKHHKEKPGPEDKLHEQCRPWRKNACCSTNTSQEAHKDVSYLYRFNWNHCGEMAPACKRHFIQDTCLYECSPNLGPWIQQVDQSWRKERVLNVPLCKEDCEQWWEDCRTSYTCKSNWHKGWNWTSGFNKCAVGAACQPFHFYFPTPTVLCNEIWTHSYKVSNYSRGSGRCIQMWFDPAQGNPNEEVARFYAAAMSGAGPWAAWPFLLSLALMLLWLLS

Compound: Nc1nc2ncc(CNc3ccc(C(=O)NC(CCC(=O)NCCNC(=S)Nc4ccc(-c5c6ccc(=O)cc-6oc6cc(O)ccc56)c(C(=O)O)c4)C(=O)O)cc3)nc2c(=O)[nH]1 (stereo not shown) [EC17, FA-(γ)-ethylenediamine-FITC]
- Kd (FRα): 1.7 nM
- specific lysis of FR-negative cells (HOS-143b): essentially unharmed
- CRS grade ([1]; day 13, after EC17 500 nmol/kg on day 12): 3
- CRS grade ([1]; days 4 and 11, after EC17 500 and 100 nmol/kg on days 3 and 10): 1–2
